{
  "source": "patent US9968572B2",
  "about": "“Clonidine and GABA compounds in a biodegradable polymer carrier” (Warsaw Orthopedic, Inc., priority 2010, dated 2018)",
  "key": {"[1]": {"tested_on": "Sprague Dawley rats with chronic constriction injury (CCI) of the sciatic nerve", "test": "Mechanical paw withdrawal (allodynia) Von Frey threshold after chronic constriction injury of the sciatic nerve", "assay_type": "in vivo", "details": "rat CCI model; gabapentin 90 mg/kg subcutaneous 1 hour prior to each assessment; days 8, 15, 22 post-CCI; vs vehicle (PBS); 2-factor ANOVA, p<0.001", "procedure": "(§1) Rats were treated with a subcutaneous human equivalent dose of 885 mcg of gabapentin 1 hour prior to testing.\n(§2) Eight Sprague Dawley rats were given a chronic constriction injury (CCI) of the sciatic nerve. The CCI was induced as described by Bennett and Xie (1988). Animals were anesthetized with pentobarbital (60 mg/kg). The right common sciatic nerve was exposed by blunt dissection between the femoral biceps and quadriceps muscle and freed from adherent tissue. Four loose ligatures were placed 1 mm apart using 4-0 chromic gut absorbable sutures. Four animals received a subcutaneous injection of gabapentin (90 mg/kg) 1 hour prior to each post-CCI pain assessment (BP) and four animals received vehicle (PBS) injections. Thermal hyperalgesia paw withdrawal latency response of the injured (rt) limb was measured 2 days before the CCI and on days 7, 14, and 21 post-CCI surgery. This is considered a model of neuropathic pain. FIG. 3 is a bar graph illustration showing that Von Frey withdrawal threshold is increased by gabapentin in rats with an injury to the sciatic nerve.\nMechanical paw withdrawal (allodynia) thresholds of each animal were measured the day before the CCI and on days 8, 15, and 22. FIG. 4 is a bar graph illustration showing that thermal withdrawal latency is increased by gabapentin in rats with an injury to the sciatic nerve. This is considered a model of tactile somatic pain."}, "[2]": {"tested_on": "Sprague Dawley rats with chronic constriction injury (CCI) of the sciatic nerve", "test": "Thermal hyperalgesia paw withdrawal latency after chronic constriction injury of the sciatic nerve", "assay_type": "in vivo", "details": "rat CCI model; gabapentin 90 mg/kg subcutaneous 1 hour prior to each assessment; days 7, 14, 21 post-CCI; injured (rt) limb; vs vehicle (PBS); 2-factor ANOVA, p<0.0001", "procedure": "as §1, §2"}},
  "data": [
    {"smiles": "NCC1(CC(=O)O)CCCCC1", "note": "[gabapentin, 2-[1-(aminomethyl)cyclohexyl]acetic acid]", "values": [
      {"measurement": "Von Frey threshold, expressed as a percent of baseline", "setting": "[1]", "value": "significantly higher"},
      {"measurement": "Thermal withdrawal latency, expressed as a percent of baseline", "setting": "[2]", "value": "significantly higher"}
    ]}
  ]
}
